The values that follow come from US7294615B1, “Compounds that associate on the intermolecular level and aggregate bodies that contain them” (priority 1999, dated 2007).

The test system of series [1] is influenza virus strain A/NIB/H1N1/89M. Kind of series: FBI test, inhibition of viral adhesion (Table 9). As to conditions: 6'SLN as reference compound (=1).
The nature of series [2]: Light scattering, particle size of aggregates. It is filed as physicochemical. As to the method:
(§1) The formation of aggregates in solution can be observed by light scattering experiments or by gel permeation chromatography.
The light scattering experiments were carried out using the following apparatus: Coultronics Coulter N4-MD (He-Ne laser, λ=632.8 nm, measurement of the scattering at an angle of 62.5° to the incident light beam), Spectra-Physics 164 (argon laser, λ=528.7 nm and λ=611.5 nm, measurement of the scattering at an angle of 90° to the incident light beam).
The investigation into the light scattering of a 50 mM solution of compound (22a) in water was carried out using a Spectra-Physics 164 argon laser (plasma lines λ=528.7 and 611.5 nm), the scattering was measured at an angle of 90° to the incident light beam. The particle size thereby determined was <2.5 nm. 50 μl of 0.8M NaHCO3 solution were added to the resulting solution. The light scattering was measured, as described above, the average particle size thereby determined was 200-400 nm.
50 μl of a 0.8M HCl was added to the resulting solution, and the sample was investigated by means of light scattering, as described above. The particle size thereby determined was <2.5 nm.

The subject of series [3] is Influenza virus A/NIB/44/90M H3N2. Kind of series: Fetuin binding inhibition (FBI) test, inhibition of viral cell adhesion. The conditions noted are these: for Relative activity: FBI test, Neu5AcαBn as reference compound (=1), specific activity per Neu5Ac group; for Kd: inhibitor virus complex.
Series [4] is described as follows: Gel permeation chromatography of aggregates. As to conditions: for Aggregate, %: determined by gel permeation chromatography. It is filed as physicochemical.
Text: as §1
The compound of the general formula (I) Neu5Ac-Gab-ACm-Ad-Gly5-NHCH2-]4C (m=1-3) associates at room temperature in aqueous and organic solvents.
Silica gel 60 (40-63 μm) (Merck) was used for column chromatography. Sephadex of types LH-20, G-10, G-25 (Pharmacia, Sweden) and TSK-4000 (HPLC) were used for gel permeation chromatography.

For series [5], the system named is Influenza virus A/Duck/Alberta/60/67 H12N5. The series is classed as binding.
The test system of the next series is PK15 cells. As to conditions: read-out: Concentration at which 50% inhibition of cytotoxicity was achieved, human serum, 10% rabbit serum complement.

Where two headings read alike, the source gives them in different places. Some results are limits rather than exact numbers.

Take “[6′SLN-Ap-Ad-Gly7-NHCH2]4C [Compound 53]”: the Relative activity in series [1] is listed as 100.
For the compound [HCl.H-Gly7-NHCH2-]4C [Compound 22a], the Particle size in series [2] (50 mM solution in water) and in series [2] (after subsequent addition of 50 μl 0.8M HCl) was below 2.5 nm each time. Also, the Association state entry in series [2] (after addition of 0.8M NaHCO3 solution) is “self-association of the compound is achieved”; in series [2] (water at 20° C.), “non-associated form”. Moreover, the Average particle size in series [2] (after addition of 50 μl 0.8M NaHCO3 solution) was 200-400 nm.
The term Kd denotes the free concentration of one partner at which half of the binding sites on the other are occupied at equilibrium, for simple one-to-one binding. Higher therefore signals lower affinity. On to `CC(=O)N[C@H]1[C@H]([C@H](O)[C@H](O)CO)O[C@@](OCc2ccccc2)(C(=O)O)C[C@@H]1O` [Neu5Acα-OBn, reference compound], for which the Relative activity in series [3] came out at 1. In series [3] (fetuin binding assay), this compound returned a Kd of 100000 nM.
“[Neu5Ac-Gab-AC2-Ad-Gly5-NHCH2-]4C [Compound 46]” gave a Relative activity in series [3] of 330. For the same compound, the Kd in series [3] (fetuin binding assay) is 300 nM. Moreover, the “Aggregate, %” value in series [4] is reported as 92%.
“[6′-SLN-Ap-Ad-AC2-Gly5-NHCH2]4C [Compound 54]” returned a Relative activity in series [1] of 1000.
For “{[Neu5Acα2-3Galβ1-4Glcβ1-NHCOCH2NH—CO(CH2)4CO—(NHCH2CO)7—NHCH2—]4C}x [Compound 51]”, in series [5], binding was put at a Kd of 100 nM and the Relative activity was 200.
In series [3], “[Neu5Ac-Gab-Ad-AC2-Gly5-NHCH2-]4C [Compound 43]” displayed a Relative activity of 1000. This compound also yielded a dissociation constant Kd in series [3] (fetuin binding assay) of 100 nM. Moreover, in series [4], the “Aggregate, %” value came to 6%.
Regarding `O=C(CCCCCNC(=O)CCCCCNC(=O)CCCCC(=O)NCCCO[C@@H]1O[C@H](CO)[C@H](O)[C@H](O[C@H]2O[C@H](CO)[C@H](O)[C@H](O)[C@H]2O)[C@H]1O)NCCCCCC(=O)NCC(=O)NCC(=O)NCC(=O)NCC(=O)NCC(=O)NCC(CNC(=O)CNC(=O)CNC(=O)CNC(=O)CNC(=O)CNC(=O)CCCCCNC(=O)CCCCCNC(=O)CCCCCNC(=O)CCCCC(=O)NCCCO[C@@H]1O[C@H](CO)[C@H](O)[C@H](O[C@H]2O[C@H](CO)[C@H](O)[C@H](O)[C@H]2O)[C@H]1O)(CNC(=O)CNC(=O)CNC(=O)CNC(=O)CNC(=O)CNC(=O)CCCCCNC(=O)CCCCCNC(=O)CCCCCNC(=O)CCCCC(=O)NCCCO[C@@H]1O[C@H](CO)[C@H](O)[C@H](O[C@H]2O[C@H](CO)[C@H](O)[C@H](O)[C@H]2O)[C@H]1O)CNC(=O)CNC(=O)CNC(=O)CNC(=O)CNC(=O)CNC(=O)CCCCCNC(=O)CCCCCNC(=O)CCCCCNC(=O)CCCCC(=O)NCCCO[C@@H]1O[C@H](CO)[C@H](O)[C@H](O[C@H]2O[C@H](CO)[C@H](O)[C@H](O)[C@H]2O)[C@H]1O` [Compound 49, {Galα1-3Galβ1-O(CH2)3NH—CO(CH2)4CO—(NH(CH2)5CO)3—(NHCH2CO)5—NHCH2—]4C}x], the IC50 in the series on PK15 cells was 500 nM.
The compound “[Neu5Acα-OCH2(p-C6H4)NHCOCH2NH—CO(CH2)4CO—(NH(CH2)5CO)3—(NHCH2CO)5—NHCH2—]4C [Compound 44]” returned a Relative activity in series [3] of 2500. Further, in series [3] (fetuin binding assay), the “Increase in specific activity in comparison with free ligand Neu5AcαBn” value is “more than three orders of magnitude” and the Kd was 40 nM. In addition, the “Aggregate, %” value in series [4] was 54%.
“[Neu5Ac-Gab-AC-Ad-Gly5-NHCH2-]4C [Compound 45]” showed a Relative activity in series [3] of 15. In series [3] (fetuin binding assay), this compound showed a dissociation constant (Kd) of 7000 nM. Besides, the “Aggregate, %” value in series [4] came out at 12%.
“[Neu5Ac-Gab-AC3-Ad-Gly5-NHCH2-]4C [Compound 47]” gave a Relative activity in series [3] of 1000. Besides, in series [3] (fetuin binding assay), binding was characterised by a dissociation constant (Kd) of 100 nM. Also, the “Aggregate, %” value in series [4] is reported as 96%.
With `CC(=O)N[C@H]1[C@H]([C@H](O)[C@H](O)CO)O[C@@](O[C@H]2[C@@H](O)[C@@H](CO)O[C@@H](O[C@H]3[C@H](O)[C@@H](O)C(O)O[C@@H]3CO)[C@@H]2O)(C(=O)O)C[C@@H]1O` (some centres unmarked) [3'SL, reference compound], in series [5] (FBI test, 3'SL as reference compound (=1), specific activity per 3'SL group), the Relative activity was found to be 1. The same compound displayed a dissociation constant Kd in series [5] (fetuin binding assay, inhibitor virus complex) of 20000 nM.
Consider “{[Neu5Acα-OCH2(p-C6H4)NHCOCH2NH—CO(CH2)4CO—(NHCH2CO)7—NHCH2—]4C} [Compound 48]”, for which the Relative activity in series [1] is given as below 0.2. The same compound showed a dissociation constant (Kd) in series [3] (fetuin binding assay) of 100 nM. Also, in series [2] (water, 60° C.), the “Particle size of aggregates” value was “up to 8000 nm”.
In the case of `CC(=O)N[C@@H]1[C@@H](O)[C@H](O[C@@H]2O[C@H](CO[C@]3(C(=O)O)C[C@H](O)[C@@H](NC(C)=O)[C@H]([C@H](O)[C@H](O)CO)O3)[C@H](O)[C@H](O)[C@H]2O)[C@@H](CO)O[C@H]1NC(=O)CNC(=O)CCCCC(=O)NCC(=O)NCC(=O)NCC(=O)NCC(CNC(=O)CNC(=O)CNC(=O)CNC(=O)CCCCC(=O)NCC(=O)N[C@@H]1O[C@H](CO)[C@@H](O[C@@H]2O[C@H](CO[C@]3(C(=O)O)C[C@H](O)[C@@H](NC(C)=O)[C@H]([C@H](O)[C@H](O)CO)O3)[C@H](O)[C@H](O)[C@H]2O)[C@H](O)[C@H]1NC(C)=O)(CNC(=O)CNC(=O)CNC(=O)CNC(=O)CCCCC(=O)NCC(=O)N[C@@H]1O[C@H](CO)[C@@H](O[C@@H]2O[C@H](CO[C@]3(C(=O)O)C[C@H](O)[C@@H](NC(C)=O)[C@H]([C@H](O)[C@H](O)CO)O3)[C@H](O)[C@H](O)[C@H]2O)[C@H](O)[C@H]1NC(C)=O)CNC(=O)CNC(=O)CNC(=O)CNC(=O)CCCCC(=O)NCC(=O)N[C@@H]1O[C@H](CO)[C@@H](O[C@@H]2O[C@H](CO[C@]3(C(=O)O)C[C@H](O)[C@@H](NC(C)=O)[C@H]([C@H](O)[C@H](O)CO)O3)[C@H](O)[C@H](O)[C@H]2O)[C@H](O)[C@H]1NC(C)=O` [{Neu5Acα2-6Galβ1-4GlcNAcβ1-NHCOCH2NH—CO(CH2)4CO—(NHCH2CO)3—NHCH2—}4C, reference compound], the “Gel permeation HPLC peaks” value in series [4] (TSK-4000 column, 0.2M NaCl) is given as “only one peak is observed, which corresponds to the molecular weight of the monomer”.
Turning to “{[Neu5Acα2-3Galβ1-4Glcβ1-NHCOCH2NH—CO(CH2)4CO—(NHCH2CO)5—NHCH2—]4C}x [Compound 50]”, in series [5], the Kd came to 1000 nM and the Relative activity amounted to 20.
Consider `OC[C@H]1O[C@H](O[C@H]2[C@@H](O)[C@@H](CO)OC(O)[C@@H]2O)[C@H](O)[C@@H](O)[C@H]1O` (some centres unmarked) [Galα1-3Gal, reference compound], for which the IC50 in the series on PK15 cells came to 200000 nM.
`CC(=O)N[C@H]1[C@H]([C@H](O)[C@H](O)CO)O[C@](OC[C@H]2O[C@@H](O[C@H]3[C@H](O)[C@@H](NC(C)=O)C(O)O[C@@H]3CO)[C@H](O)[C@@H](O)[C@H]2O)(C(=O)O)C[C@@H]1O` (some centres unmarked) [6'SLN, reference compound] yielded a Relative activity in series [1] of 1.
